Publication PMC4979471 (Cell Death Discovery, 2015)
Where two headings read alike, the source gives them in different places.

Columns and labels:
Assay in all cases: Kinase selectivity, P33-radiolabeled assay
Assay type in all cases: biochemical
Conditions in all cases: 10 μM ATP
DYRK1B = target: T1, DYRK1B (Homo sapiens, UniProt Q9Y463)
T1 construct: purchased Reaction Biology Corp
Method in brief: (§1)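 Duplicate single-concentration testing used 10 μM compound. The ATP concentration was also 10 μM.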

DMPK2 = target: T2, DMPK2 (Homo sapiens, UniProt Q6DT37)
T2 construct: purchased Reaction Biology Corp
T2 sequence (Q6DT37 whole entry): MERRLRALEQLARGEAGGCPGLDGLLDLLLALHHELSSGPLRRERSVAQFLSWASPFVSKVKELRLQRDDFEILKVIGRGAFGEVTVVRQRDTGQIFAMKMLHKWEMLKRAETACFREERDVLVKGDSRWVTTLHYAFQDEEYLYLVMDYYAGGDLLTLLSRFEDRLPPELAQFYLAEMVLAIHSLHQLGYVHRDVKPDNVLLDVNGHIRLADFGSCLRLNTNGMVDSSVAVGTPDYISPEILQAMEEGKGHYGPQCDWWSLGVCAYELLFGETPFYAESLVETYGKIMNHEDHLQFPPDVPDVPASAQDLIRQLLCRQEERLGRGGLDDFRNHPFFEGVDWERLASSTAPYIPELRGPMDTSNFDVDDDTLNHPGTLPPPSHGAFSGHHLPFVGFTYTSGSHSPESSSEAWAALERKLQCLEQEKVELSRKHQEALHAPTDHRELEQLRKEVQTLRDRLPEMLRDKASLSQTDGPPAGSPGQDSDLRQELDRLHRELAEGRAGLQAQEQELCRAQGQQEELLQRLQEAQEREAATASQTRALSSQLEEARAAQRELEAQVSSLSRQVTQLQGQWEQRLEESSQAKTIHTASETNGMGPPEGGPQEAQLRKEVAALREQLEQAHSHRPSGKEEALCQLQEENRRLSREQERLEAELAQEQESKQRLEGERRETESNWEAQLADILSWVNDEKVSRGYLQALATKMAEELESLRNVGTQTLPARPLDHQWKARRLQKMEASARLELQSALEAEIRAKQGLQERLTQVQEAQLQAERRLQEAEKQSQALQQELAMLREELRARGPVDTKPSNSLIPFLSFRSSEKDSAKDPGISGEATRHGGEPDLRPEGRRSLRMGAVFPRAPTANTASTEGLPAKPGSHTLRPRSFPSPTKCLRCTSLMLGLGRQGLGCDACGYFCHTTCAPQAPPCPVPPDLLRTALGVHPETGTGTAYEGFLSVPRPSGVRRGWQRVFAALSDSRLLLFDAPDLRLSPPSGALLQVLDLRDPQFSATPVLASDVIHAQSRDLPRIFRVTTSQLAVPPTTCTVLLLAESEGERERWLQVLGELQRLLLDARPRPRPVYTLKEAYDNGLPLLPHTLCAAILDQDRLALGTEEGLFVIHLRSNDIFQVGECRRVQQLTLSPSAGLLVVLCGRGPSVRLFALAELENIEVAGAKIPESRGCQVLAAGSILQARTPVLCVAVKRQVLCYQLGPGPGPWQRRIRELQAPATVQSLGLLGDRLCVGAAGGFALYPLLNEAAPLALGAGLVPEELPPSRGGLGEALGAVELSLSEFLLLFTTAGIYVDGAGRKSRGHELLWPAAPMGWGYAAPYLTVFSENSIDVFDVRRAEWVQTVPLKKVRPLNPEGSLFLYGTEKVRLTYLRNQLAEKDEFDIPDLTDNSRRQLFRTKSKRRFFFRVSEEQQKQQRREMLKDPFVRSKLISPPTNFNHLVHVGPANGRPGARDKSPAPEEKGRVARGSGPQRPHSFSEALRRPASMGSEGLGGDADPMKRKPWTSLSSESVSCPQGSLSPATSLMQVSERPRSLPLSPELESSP
Method in brief: as §1

CDK6/cyclin D3 = target: T3, CDK6/cyclin D3 (Homo sapiens, UniProt Q00534)
T3 construct: purchased Reaction Biology Corp
Method in brief: as §1

FAK/PTK2 = target: T4, FAK/PTK2 (Homo sapiens, UniProt Q05397)
T4 construct: purchased Reaction Biology Corp
T4 sequence (Q05397 whole entry): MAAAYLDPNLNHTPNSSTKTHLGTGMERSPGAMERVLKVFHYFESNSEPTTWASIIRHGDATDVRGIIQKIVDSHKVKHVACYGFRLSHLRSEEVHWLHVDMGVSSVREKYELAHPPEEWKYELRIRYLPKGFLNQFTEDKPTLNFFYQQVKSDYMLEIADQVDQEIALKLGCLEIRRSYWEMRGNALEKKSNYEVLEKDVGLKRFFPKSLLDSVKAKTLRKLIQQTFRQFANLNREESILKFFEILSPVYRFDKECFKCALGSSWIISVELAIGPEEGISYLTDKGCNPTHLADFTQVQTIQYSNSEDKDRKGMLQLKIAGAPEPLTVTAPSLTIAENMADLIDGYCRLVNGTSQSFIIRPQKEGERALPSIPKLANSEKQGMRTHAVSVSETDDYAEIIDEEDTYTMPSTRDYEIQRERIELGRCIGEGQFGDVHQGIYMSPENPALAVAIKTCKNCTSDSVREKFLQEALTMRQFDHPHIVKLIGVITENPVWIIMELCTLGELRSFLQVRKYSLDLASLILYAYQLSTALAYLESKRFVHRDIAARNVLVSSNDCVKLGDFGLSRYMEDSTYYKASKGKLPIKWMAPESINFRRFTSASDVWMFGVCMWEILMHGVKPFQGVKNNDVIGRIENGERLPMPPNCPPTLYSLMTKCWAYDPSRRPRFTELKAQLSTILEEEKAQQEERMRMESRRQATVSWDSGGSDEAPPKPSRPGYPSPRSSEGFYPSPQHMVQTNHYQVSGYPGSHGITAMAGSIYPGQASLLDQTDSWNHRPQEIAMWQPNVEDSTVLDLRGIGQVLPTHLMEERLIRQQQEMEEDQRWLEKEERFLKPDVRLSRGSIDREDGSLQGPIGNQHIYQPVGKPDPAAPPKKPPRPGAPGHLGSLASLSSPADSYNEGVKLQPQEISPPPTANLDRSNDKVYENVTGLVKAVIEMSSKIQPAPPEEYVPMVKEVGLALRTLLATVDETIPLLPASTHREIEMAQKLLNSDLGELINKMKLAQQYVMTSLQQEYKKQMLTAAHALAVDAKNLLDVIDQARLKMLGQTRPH
Method in brief: as §1

OSR1/OXSR1 = target: T5, OSR1/OXSR1 (Homo sapiens, UniProt O95747)
T5 construct: purchased Reaction Biology Corp
T5 sequence (O95747 whole entry): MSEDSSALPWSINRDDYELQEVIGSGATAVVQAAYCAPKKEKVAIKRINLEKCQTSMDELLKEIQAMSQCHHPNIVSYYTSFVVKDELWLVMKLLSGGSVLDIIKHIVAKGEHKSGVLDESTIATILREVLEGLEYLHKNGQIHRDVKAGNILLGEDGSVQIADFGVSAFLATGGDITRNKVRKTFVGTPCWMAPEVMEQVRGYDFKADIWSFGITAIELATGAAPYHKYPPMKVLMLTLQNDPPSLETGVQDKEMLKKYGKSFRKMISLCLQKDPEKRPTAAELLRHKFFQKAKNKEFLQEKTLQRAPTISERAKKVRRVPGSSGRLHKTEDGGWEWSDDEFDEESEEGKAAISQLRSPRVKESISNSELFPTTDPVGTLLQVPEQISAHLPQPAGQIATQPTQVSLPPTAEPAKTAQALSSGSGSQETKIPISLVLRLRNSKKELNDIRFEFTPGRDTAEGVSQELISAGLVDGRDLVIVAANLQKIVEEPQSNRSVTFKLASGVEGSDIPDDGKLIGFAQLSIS
Method in brief: as §1

PDK1/PDPK1 = target: T6, PDK1/PDPK1 (Homo sapiens, UniProt O15530)
T6 construct: purchased Reaction Biology Corp
T6 sequence (O15530 1-556): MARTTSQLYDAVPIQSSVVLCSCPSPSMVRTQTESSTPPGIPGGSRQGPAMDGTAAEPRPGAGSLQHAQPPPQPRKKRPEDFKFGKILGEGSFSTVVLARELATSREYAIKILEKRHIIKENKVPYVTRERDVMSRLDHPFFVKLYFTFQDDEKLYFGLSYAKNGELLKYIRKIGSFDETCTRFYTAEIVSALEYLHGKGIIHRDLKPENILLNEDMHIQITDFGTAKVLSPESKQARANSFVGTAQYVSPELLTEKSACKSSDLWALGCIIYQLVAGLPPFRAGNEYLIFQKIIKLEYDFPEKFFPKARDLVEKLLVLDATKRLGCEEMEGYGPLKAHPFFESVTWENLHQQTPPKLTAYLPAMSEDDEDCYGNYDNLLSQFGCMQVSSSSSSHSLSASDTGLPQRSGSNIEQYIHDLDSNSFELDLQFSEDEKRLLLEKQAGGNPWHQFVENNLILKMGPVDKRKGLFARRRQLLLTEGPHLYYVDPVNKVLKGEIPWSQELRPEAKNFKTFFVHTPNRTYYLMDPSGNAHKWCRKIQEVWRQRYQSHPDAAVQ
Method in brief: as §1

PKCd = target: T7, PKCd (Homo sapiens, UniProt Q05655)
T7 construct: purchased Reaction Biology Corp
T7 sequence (Q05655 whole entry): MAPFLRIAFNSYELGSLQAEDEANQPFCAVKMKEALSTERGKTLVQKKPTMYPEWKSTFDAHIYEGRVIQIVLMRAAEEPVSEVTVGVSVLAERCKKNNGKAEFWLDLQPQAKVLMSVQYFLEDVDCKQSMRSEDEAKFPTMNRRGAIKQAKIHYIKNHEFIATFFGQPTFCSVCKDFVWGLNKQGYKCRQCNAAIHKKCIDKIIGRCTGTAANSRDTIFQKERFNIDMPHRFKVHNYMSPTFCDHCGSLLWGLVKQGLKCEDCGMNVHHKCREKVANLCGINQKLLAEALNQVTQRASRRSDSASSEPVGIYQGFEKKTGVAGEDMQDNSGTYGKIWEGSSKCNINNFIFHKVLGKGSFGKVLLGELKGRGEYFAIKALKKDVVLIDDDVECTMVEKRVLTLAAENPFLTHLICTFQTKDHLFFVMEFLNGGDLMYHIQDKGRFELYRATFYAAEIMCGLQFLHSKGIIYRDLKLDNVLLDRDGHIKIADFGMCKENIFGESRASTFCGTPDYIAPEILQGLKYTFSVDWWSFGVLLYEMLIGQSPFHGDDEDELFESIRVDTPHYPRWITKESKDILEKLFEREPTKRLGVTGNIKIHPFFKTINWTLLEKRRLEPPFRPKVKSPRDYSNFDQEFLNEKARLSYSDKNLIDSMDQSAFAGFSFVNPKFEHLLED
Method in brief: as §1

LKB1 = target: T8, LKB1 (Homo sapiens, UniProt Q15831)
T8 construct: purchased Reaction Biology Corp
T8 sequence (Q15831 1-433): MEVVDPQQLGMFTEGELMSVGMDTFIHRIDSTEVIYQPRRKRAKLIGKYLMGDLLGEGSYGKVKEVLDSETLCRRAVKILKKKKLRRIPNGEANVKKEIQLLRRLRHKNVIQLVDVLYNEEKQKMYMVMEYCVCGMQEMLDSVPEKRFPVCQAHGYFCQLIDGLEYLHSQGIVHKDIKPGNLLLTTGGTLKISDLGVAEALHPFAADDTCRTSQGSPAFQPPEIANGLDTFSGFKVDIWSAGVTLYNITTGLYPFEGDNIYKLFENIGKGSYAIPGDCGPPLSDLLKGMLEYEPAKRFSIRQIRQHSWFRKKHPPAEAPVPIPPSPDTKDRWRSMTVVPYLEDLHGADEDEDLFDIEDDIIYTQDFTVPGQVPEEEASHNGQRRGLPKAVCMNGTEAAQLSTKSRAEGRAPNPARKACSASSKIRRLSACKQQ
T8 sequence (Q7RTN6 1-431 partner): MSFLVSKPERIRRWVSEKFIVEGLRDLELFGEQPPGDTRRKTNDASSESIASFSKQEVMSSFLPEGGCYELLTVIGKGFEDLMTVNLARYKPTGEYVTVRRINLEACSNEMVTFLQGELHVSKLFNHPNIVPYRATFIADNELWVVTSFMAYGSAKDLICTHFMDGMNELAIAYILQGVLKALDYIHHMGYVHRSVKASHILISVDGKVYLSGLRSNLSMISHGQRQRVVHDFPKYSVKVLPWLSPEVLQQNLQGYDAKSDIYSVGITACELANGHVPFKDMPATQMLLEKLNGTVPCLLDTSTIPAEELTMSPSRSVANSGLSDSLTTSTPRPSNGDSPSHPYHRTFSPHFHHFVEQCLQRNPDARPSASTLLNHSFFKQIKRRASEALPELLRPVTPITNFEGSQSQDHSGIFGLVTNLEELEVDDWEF
T8 sequence (Q9Y376 1-341 partner): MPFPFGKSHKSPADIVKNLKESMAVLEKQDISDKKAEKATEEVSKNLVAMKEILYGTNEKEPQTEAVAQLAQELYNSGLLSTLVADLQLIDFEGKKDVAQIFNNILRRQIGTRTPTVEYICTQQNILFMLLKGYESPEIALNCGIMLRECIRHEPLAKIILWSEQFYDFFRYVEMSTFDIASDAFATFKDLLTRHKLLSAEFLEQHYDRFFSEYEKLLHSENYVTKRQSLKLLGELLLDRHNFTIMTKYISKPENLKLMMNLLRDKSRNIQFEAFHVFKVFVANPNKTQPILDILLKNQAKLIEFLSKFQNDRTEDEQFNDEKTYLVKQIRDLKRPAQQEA
Method in brief: as §1

RON/MST1R = target: T9, RON/MST1R (Homo sapiens, UniProt Q04912)
T9 construct: purchased Reaction Biology Corp
Method in brief: as §1

MAPKAPK3 = target: T10, MAPKAPK3 (Homo sapiens, UniProt Q16644)
T10 construct: purchased Reaction Biology Corp
T10 sequence (Q16644 whole entry): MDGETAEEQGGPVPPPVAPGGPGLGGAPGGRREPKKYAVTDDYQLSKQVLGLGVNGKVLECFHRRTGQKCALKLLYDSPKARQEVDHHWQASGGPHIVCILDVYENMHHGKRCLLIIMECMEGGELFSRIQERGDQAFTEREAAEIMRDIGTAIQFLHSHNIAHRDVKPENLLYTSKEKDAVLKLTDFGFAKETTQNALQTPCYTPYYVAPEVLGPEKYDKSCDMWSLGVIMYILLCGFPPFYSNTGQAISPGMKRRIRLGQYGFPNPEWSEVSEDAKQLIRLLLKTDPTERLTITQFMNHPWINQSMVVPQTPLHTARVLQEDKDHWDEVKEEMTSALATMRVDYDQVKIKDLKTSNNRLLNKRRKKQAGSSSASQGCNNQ
Method in brief: as §1

CDK3/cyclin E = target: T11, CDK3/cyclin E (Homo sapiens, UniProt Q00526)
T11 construct: purchased Reaction Biology Corp
T11 sequence (Q00526 whole entry): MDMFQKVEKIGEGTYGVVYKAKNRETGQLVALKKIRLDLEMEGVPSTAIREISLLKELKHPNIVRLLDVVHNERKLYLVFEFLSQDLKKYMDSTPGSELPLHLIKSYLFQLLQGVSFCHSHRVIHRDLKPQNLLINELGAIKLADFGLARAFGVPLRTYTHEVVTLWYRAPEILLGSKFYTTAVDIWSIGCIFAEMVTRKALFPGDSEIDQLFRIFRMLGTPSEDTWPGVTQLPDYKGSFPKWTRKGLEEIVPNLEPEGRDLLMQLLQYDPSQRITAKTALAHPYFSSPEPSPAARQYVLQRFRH
T11 sequence (P24864 whole entry partner): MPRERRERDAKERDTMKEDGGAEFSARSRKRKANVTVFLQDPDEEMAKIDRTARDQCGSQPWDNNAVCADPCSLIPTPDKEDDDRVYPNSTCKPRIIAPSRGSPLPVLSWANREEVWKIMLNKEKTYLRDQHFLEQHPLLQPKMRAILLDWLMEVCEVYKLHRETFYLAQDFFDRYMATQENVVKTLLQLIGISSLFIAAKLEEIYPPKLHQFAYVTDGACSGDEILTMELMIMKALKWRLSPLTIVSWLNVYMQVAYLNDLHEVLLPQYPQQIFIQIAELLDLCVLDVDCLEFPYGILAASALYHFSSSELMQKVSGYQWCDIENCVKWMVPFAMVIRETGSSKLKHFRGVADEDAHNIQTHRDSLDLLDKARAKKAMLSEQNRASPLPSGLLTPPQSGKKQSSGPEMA
Method in brief: as §1

[1] = read-out: % Enzyme Activity (relative to DMSO controls) AVG
[2] = read-out: % Enzyme Activity (relative to DMSO controls) Data 1
[3] = read-out: % Enzyme Activity (relative to DMSO controls) Data 2

CC(C)(C)C(=O)N1N=CC[C@H]1c1ccccc1 [GSK′963]
remaining activity at 10 µM (DYRK1B; [1]): 102% | remaining activity at 10 µM (DYRK1B; [2]): 103% | remaining activity at 10 µM (DYRK1B; [3]): 101% | remaining activity at 10 µM (DMPK2; [1]): 139% | remaining activity at 10 µM (DMPK2; [2]): 140% | remaining activity at 10 µM (DMPK2; [3]): 139% | remaining activity at 10 µM (CDK6/cyclin D3; [1]): 86.9% | remaining activity at 10 µM (CDK6/cyclin D3; [2]): 84.5% | remaining activity at 10 µM (CDK6/cyclin D3; [3]): 89.3% | remaining activity at 10 µM (FAK/PTK2; [1]): 101% | remaining activity at 10 µM (FAK/PTK2; [2]): 101% | remaining activity at 10 µM (FAK/PTK2; [3]): 101% | remaining activity at 10 µM (OSR1/OXSR1; [1]): 120% | remaining activity at 10 µM (OSR1/OXSR1; [2]): 127% | remaining activity at 10 µM (OSR1/OXSR1; [3]): 112% | remaining activity at 10 µM (PDK1/PDPK1; [1]): 109% | remaining activity at 10 µM (PDK1/PDPK1; [2]): 108% | remaining activity at 10 µM (PDK1/PDPK1; [3]): 110% | remaining activity at 10 µM (PKCd; [1]): 106% | remaining activity at 10 µM (PKCd; [2]): 106% | remaining activity at 10 µM (PKCd; [3]): 107% | remaining activity at 10 µM (LKB1; [1]): 105% | remaining activity at 10 µM (LKB1; [2]): 105% | remaining activity at 10 µM (LKB1; [3]): 106% | remaining activity at 10 µM (RON/MST1R; [1]): 104% | remaining activity at 10 µM (RON/MST1R; [2]): 106% | remaining activity at 10 µM (RON/MST1R; [3]): 102% | remaining activity at 10 µM (MAPKAPK3; [1]): 103% | remaining activity at 10 µM (MAPKAPK3; [2]): 104% | remaining activity at 10 µM (MAPKAPK3; [3]): 103% | remaining activity at 10 µM (CDK3/cyclin E; [1]): 106% | remaining activity at 10 µM (CDK3/cyclin E; [2]): 105% | remaining activity at 10 µM (CDK3/cyclin E; [3]): 107%
